Results as given in paper PMC9127185, “A Pyridazinone Compound for Effectively Treating Non-alcoholic Steatohepatitis by Targeting THRβ” (Frontiers in Chemistry, 2022).

Columns and labels:
[1] = test system: acute hyperlipidemia mice; assay: Acute hyperlipidemia mice; type: in vivo; conditions: in words, no data shown
[2] = Tissue distribution study after oral administration; type: in vivo, C57BL/6J mice; conditions: for Time of highest tissue level: oral
Protocol: The frozen mice plasma samples and tissue homogenates were thawed at room temperature, vortexed for 1 min, then taken out in 10-μl aliquots in a 1.50-ml centrifuge tube, and this was then mixed with 1 μl of standard solution and 50 μl of internal standard (IS) solution, which was then dissolved and diluted with acetonitrile. Subsequently, it was vortexed for 3 min and at 14,000 rpm centrifugation for 5 min. The adopted 1 μl of the supernatant was used for sample injection analysis.
A total of 24 male C57/BL6J mice were divided into 4 groups at random, with 6 mice in a group for tissue distribution at 0.25, 1, 6, and 24 h. They were given YWS01125 after oral administration of 20 mg/kg, and then sacrificed at 0.25, 1, 6, and 24 h. Tissues from the heart, liver, spleen, lungs, kidneys, stomach, small intestine, colon, fat, muscle, testes, and brain were taken and rinsed with saline solution to remove the blood and connective tissues ([Geng et al., 2015]; [He et al., 2017]; [Jiang et al., 2017]), then put on the filter paper and weighed, quickly. Each tissue sample was homogenized by using five times of the tissue weight saline (w/v). All homogenates were stored at−80 °C until analysis.
The tissue distributions of YWS01125 were investigated in C57BL/6J mice at 0.25, 1, 6, and 24 h after oral administration. The examined organs or tissues included the heart, liver, spleen, lungs, kidneys, stomach, small intestine, colon, fat, muscle, testes, and brain. The linear ranges, correlation coefficients, weight factors, and regression equations for all analytes in the mouse plasma and tissue homogenates are shown in Table 5. The concentration of each tissue at 0.25 h is indicated as stomach > kidneys > liver > colon > small intestine > testes > heart > spleen > lungs > fat; concentration of each tissue at 1 h is small intestine > colon > liver > stomach > kidneys > lungs > heart > fat > testes; concentration of each tissue at 6 h is small intestine > colon > stomach > liver > kidneys > heart; and concentration of each tissue at 24 h is that the whole tissues were not detected (Table 6). […] The content of the compound in the stomach was much higher than that in any other organ. The highest levels were reached 0.25 h after oral administration, then decreased thereafter. For the heart, liver, kidneys, lungs, small intestine, colon, and fat, the highest level was reached 1 h after oral administration, and it reached the highest levels at 0.25 h in the spleen, stomach, and testes.

[3] = Stability of YWS01125 in mouse plasma under storage conditions; type: in vitro ADME; conditions: for Accuracy (RE) after storage / Concentration found after storage, Mean ± SD: mouse plasma
Protocol: The validation was carried out by the US Food and Drug Administration bioanalytical method guidance ([Bioanalytical Method Validation, 2018]; [US Food and Drug Administration, 2018]; [Chen et al., 2019]), namely evaluating selectivity, linearity, accuracy and precision, recovery, matrix effect, and stability. Selectivity was assessed by contrasting the normal blank plasma samples' and analyst plasma samples' chromatograms from six different specimens. Linearity was appraised by different concentrations of the standard medicated plasma samples for 3 days continuously. The peak area was recorded ([Booth et al., 2015]), and weighted (1/x^2) least-squares analysis was used to acquire the standard curve equations. The accuracy and precision were assessed by three different (low, medium, and high) QC samples by diluting with acetonitrile; each concentration had six samples and was continuously accessed for 3 days, and the accuracy, intra-day precision, and inter-day precision were obtained. Recovery was evaluated by comparing the peak area of protein precipitated with acetonitrile first and finally using it to calculate the recovery of the analyst. The matrix effect was measured by comparing the analyst peak area with the saline solution samples and QC samples at the three concentrations. The stability was assessed by defining the three QC levels in several different storage conditions: at room temperature for 6 h, injector stability at 15 °C for a whole night, and after three freeze–thaw cycles.
This experiment investigated the stability of YWS01125 in the mouse plasma at different temperature conditions, namely the auto sampler (15°C) for 12 h of injector stability, room temperature for 6 h, and three freeze–thaw cycles. […] The measured results of YWS01125 are all within the acceptable limits during the entire process (Table 3).

acute liver injury model = assay: Acute liver injury model; type: in vivo, rat; conditions: in words, no data shown
Cytotoxicity = type: cell-based; conditions: in words, no data shown
[4] = after oral administration, all time points
[5] = injector stability (15°C, 12 h), added 10 ng/ml
[6] = injector stability (15°C, 12 h), added 50 ng/ml
[7] = injector stability (15°C, 12 h), added 300 ng/ml
[8] = room temperature for 6 h, added 10 ng/ml
[9] = room temperature for 6 h, added 300 ng/ml
[10] = three freeze–thaw cycles, added 10 ng/ml
[11] = three freeze–thaw cycles, added 50 ng/ml
[12] = three freeze–thaw cycles, added 300 ng/ml

Concentration in the brain [2, 4]: not detected
Concentration in the muscle [2, 4]: not detected
Time of highest tissue level ([2]; heart, liver, kidneys, lungs, small intestine, colon, fat): 1 h
Colon tissue concentration ([2]; oral 20 mg/kg, 15 min): 46.70 ± 2.27
Fat tissue concentration ([2]; oral 20 mg/kg, 15 min): 9.37 ± 0.88
Heart tissue concentration ([2]; oral 20 mg/kg, 15 min): 7.00 ± 1.05
Kidneys tissue concentration ([2]; oral 20 mg/kg, 15 min): 129.83 ± 18.31
Liver tissue concentration ([2]; oral 20 mg/kg, 15 min): 69.93 ± 11.25
Lungs tissue concentration ([2]; oral 20 mg/kg, 15 min): 5.51 ± 1.22
Small intestine tissue concentration ([2]; oral 20 mg/kg, 15 min): 31.30 ± 6.38
Spleen tissue concentration ([2]; oral 20 mg/kg, 15 min): 6.26 ± 0.60
Stomach tissue concentration ([2]; oral 20 mg/kg, 15 min): 378.67 ± 36.89
Testes tissue concentration ([2]; oral 20 mg/kg, 15 min): 15.37 ± 2.15
Colon tissue concentration ([2]; oral 20 mg/kg, 1 h): 357.67 ± 35.31
Fat tissue concentration ([2]; oral 20 mg/kg, 1 h): 8.69 ± 1.45
Heart tissue concentration ([2]; oral 20 mg/kg, 1 h): 14.41 ± 5.97
Kidneys tissue concentration ([2]; oral 20 mg/kg, 1 h): 230.50 ± 15.53
Liver tissue concentration ([2]; oral 20 mg/kg, 1 h): 283.67 ± 40.72
Lungs tissue concentration ([2]; oral 20 mg/kg, 1 h): 60.76 ± 4.97
Small intestine tissue concentration ([2]; oral 20 mg/kg, 1 h): 373.00 ± 33.88
Stomach tissue concentration ([2]; oral 20 mg/kg, 1 h): 247.17 ± 24.96
Testes tissue concentration ([2]; oral 20 mg/kg, 1 h): 6.08 ± 4.70
Colon tissue concentration ([2]; oral 20 mg/kg, 6 h): 60.23 ± 3.87
Heart tissue concentration ([2]; oral 20 mg/kg, 6 h): 4.01 ± 1.27
Kidneys tissue concentration ([2]; oral 20 mg/kg, 6 h): 12.73 ± 1.65
Liver tissue concentration ([2]; oral 20 mg/kg, 6 h): 16.63 ± 1.72
Small intestine tissue concentration ([2]; oral 20 mg/kg, 6 h): 61.03 ± 4.06
Stomach tissue concentration ([2]; oral 20 mg/kg, 6 h): 54.49 ± 10.20
Time of highest tissue level ([2]; spleen, stomach, testes): 0.25 h
Stability in mouse plasma (in words) ([3]; auto sampler 15°C 12 h, room temperature 6 h, three freeze–thaw cycles): maintains stability
Accuracy (RE) after storage [3, 5]: 5.00%
Concentration found after storage, Mean ± SD [3, 5]: 10.67 ± 0.52 ng/mL
Accuracy (RE) after storage [3, 6]: −4.68%
Concentration found after storage, Mean ± SD [3, 6]: 49.91 ± 2.15 ng/mL
Accuracy (RE) after storage [3, 7]: −1.60%
Concentration found after storage, Mean ± SD [3, 7]: 295.17 ± 29.36 ng/mL
Accuracy (RE) after storage [3, 8]: 1.20%
Concentration found after storage, Mean ± SD [3, 8]: 10.29 ± 0.82 ng/mL
Concentration found after storage, Mean ± SD ([3]; room temperature for 6 h, added 50 ng/ml): 52.62 ± 1.73 ng/mL
Accuracy (RE) after storage [3, 9]: 3.88%
Concentration found after storage, Mean ± SD [3, 9]: 299.33 ± 10.07 ng/mL
Accuracy (RE) after storage [3, 10]: −1.80%
Concentration found after storage, Mean ± SD [3, 10]: 9.45 ± 0.57 ng/mL
Accuracy (RE) after storage [3, 11]: −2.20%
Concentration found after storage, Mean ± SD [3, 11]: 47.80 ± 3.96 ng/mL
Accuracy (RE) after storage [3, 12]: −2.66%
Concentration found after storage, Mean ± SD [3, 12]: 289.17 ± 12.77 ng/mL
SMILES: N#Cc1cn(-c2cc(Cl)c(Oc3cc(C4CCC4)c(=O)[nH]n3)c(Cl)c2)c(=O)[nH]c1=O [YWS01125, 1-(3,5-dichloro-4-((5-cyclobutyl-6-oxo-1,6-dihydropyridazin-3-yl)oxy)phenyl)-2,4-dioxo-1,2,3,4-tetrahydropyrimidine-5-carbonitrile]
Effect on acute hyperlipidemia mice [1]: lipid-lowering function
Effect in acute liver injury model (acute liver injury model): hepatoprotective effect
Cytotoxicity (Cytotoxicity): low cytotoxicity
